Patent publication US20120004137A1, “IDENTIFICATION OF NUCLEIC ACID DELIVERY VEHICLES USING DNA DISPLAY” (X-Body, Inc., priority 2009, published 2012)
Ends that are not written are not given here. * marks the point of attachment. Biotin = O=C1N[C@H]2[C@H](CS[C@H]2CCCCC(=O)*)N1

System: HEK293T cells
Experiment: Transfection-independent cytoplasmic entry, T7 RNAP RT-PCR assay
Format: cell-based
Conditions: 40 pmol biotin:streptavidin dsDNA-SA-peptide assembly added without transfection reagent to HEK293T cells transiently transfected with T7_pEF/myc/cyto; lysed 18 hours later; FIG. 14 bottom panel
Description: To determine if cytoplasmic T7 would be active as a polymerase in mammalian cells, we developed a transient transfection assay in HEK293T cells (FIG. 5). Cells were seeded in 24-well dishes at 350,000 cells/well and then incubated overnight in Eagle's Minimum Essential Medium supplemented with 10% fetal bovine serum (FBS). A DNA template containing the T7 promoter upstream of the coding region of a VH antibody domain was prepared by PCR as follows. VH DNA from a naïve human VH library was PCR amplified (Strategene 600312) with a 5′ oligo coding for in vitro transcription and translation signal T7TMV (5′-TAATACG […]-3′; SEQ ID NO: 3)) and a 3′ oligo annealing to the C-terminal VH DNA Cmu and SA linker region, Y15 (5′-[…]-3′; SEQ ID NO: 4). The PCR product was gel purified. […] This specific RNA is then detected and amplified by RT-PCR. […]
For the cytoplasmic entry selections to be successful, biotin-streptavidin assemblies of oligonucleotide and encoded peptide or protein must be competent as T7 polymerase templates. To test whether a complex of biotinylated peptide or VH binder assembled with streptavidin can be transfected into cells, transcribed by T7 RNAP, and detected by RT-PCR, the above VH DNA was modified to carry both SP6 and T7 promoter sequences at the 5′ end (5′-[…]-3′; SEQ ID NO: 9) and Cmu-flag-SA-polyA sequence at the 3′ end (FIG. 12). […]

| Substance | cellular uptake / RT-PCR activity as a result of cytoplasmic T7 polymerase activity |
| --- | --- |
| Biotin-KKWKMRRNQFWVKVQRG [ANT] | cellular uptake of the peptide assemblies occurs |
| Biotin-YGRKKRRQRRR [TAT] | cellular uptake of the peptide assemblies occurs |
